Drawing on ChEMBL document CHEMBL5579843, “Multimechanism biological profiling of tetrahydro-β-carboline analogues as selective HDAC6 inhibitors for the treatment of Alzheimer's disease” (Eur J Med Chem, 2024), this text covers Activity and IC50 for 1 molecule.

Assay [1] has as its system PC-12. Put plainly: Neuroprotective activity against H2O2-induced oxidative damage in rat PC-12 cells assessed as inhibition of apoptosis by measuring late apoptotic cells at 10 uM pretreated for 4 hrs followed by H2O2 stimulation and measured after 24 hrs by Annexin V-FITC/PI staining based flow cytometry analysis (reference value: 10.9%). In kind it is functional. More on the design: scale not given: the % may be the effect or the level left. Particulars: time 28 hrs. (In flow cytometry, cells or beads pass a laser one at a time.)

The target in the next assay is T1, Histone deacetylase 8 (Homo sapiens, UniProt Q9BY41).
T1 sequence (Q9BY41 whole entry): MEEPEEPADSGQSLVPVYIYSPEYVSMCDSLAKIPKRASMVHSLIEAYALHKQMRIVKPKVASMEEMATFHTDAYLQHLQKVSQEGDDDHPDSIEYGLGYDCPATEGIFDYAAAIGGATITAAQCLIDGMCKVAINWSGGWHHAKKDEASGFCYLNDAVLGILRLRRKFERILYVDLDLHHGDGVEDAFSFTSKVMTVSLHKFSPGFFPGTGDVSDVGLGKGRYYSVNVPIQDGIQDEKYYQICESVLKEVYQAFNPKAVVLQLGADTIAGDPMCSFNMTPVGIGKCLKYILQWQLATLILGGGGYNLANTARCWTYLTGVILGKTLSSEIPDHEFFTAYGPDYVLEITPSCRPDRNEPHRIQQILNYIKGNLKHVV
Nature of the assay: Inhibition of HDAC8 (unknown origin).

Another assay deals with Histone deacetylase 2 (Homo sapiens, UniProt Q92769). Put plainly: Inhibition of HDAC2 (unknown origin).
Histone deacetylase 2, sequence (Q92769 whole entry): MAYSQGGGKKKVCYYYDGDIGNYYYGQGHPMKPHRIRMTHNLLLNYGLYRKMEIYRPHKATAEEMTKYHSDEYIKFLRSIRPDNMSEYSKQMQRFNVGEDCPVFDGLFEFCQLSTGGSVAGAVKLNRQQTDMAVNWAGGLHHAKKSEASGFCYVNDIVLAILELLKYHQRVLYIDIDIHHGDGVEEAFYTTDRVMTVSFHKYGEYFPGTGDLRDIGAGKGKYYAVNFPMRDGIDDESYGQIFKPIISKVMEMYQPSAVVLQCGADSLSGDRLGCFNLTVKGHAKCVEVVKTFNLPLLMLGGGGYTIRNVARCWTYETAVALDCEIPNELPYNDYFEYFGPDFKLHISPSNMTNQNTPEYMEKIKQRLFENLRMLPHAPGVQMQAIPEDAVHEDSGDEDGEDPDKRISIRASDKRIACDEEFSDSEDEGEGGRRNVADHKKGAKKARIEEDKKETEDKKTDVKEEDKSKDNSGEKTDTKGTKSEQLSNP
Assay [2] has as its system PC-12. Nature of the assay: Neuroprotective activity against H2O2-induced oxidative damage in rat PC-12 cells assessed as inhibition of apoptosis by measuring dead cells at 10 uM pretreated for 4 hrs followed by H2O2 stimulation and measured after 24 hrs by Annexin V-FITC/PI staining based flow cytometry analysis (reference value: 5.10%). In kind it is functional. More on the design: scale not given: the % may be the effect or the level left. The note with it: time 28 hrs.

Assay [3] has as its system PC-12. Nature of the assay: Neuroprotective activity against H2O2-induced oxidative damage in rat PC-12 cells assessed as reduction in intracellular LDH level by measuring residual activity at 5 uM pretreated for 4 hrs followed by H2O2 stimulation and measured after 24 hrs relative to control. In kind it is functional. Particulars: time 28 hrs.
Assay [4] concerns PC-12. Put plainly: Neuroprotective activity against H2O2-induced oxidative damage in rat PC-12 cells assessed as inhibition of apoptosis by measuring increase in Bcl-2 protein expression pretreated for 4 hrs followed by H2O2 stimulation and measured after 24 hrs by Western blot analysis. In kind it is functional, cell-based. Particulars: dose 1-10 µM, time 28.0 hrs. (In western blotting, separated proteins are transferred to a membrane and probed.)

In assay [5] the test system is PC-12. Nature of the assay: Induction of neurite outgrowth in rat PC-12 cells assessed as increase in average neuronal length at 1 to 10 uM measured after 48 hrs by light microscopic analysis. In kind it is functional, cell-based. The note with it: dose 1-10 µM.
For assay [6], the system named is SH-SY5Y. Put plainly: Neuroprotective activity against 6-OHDA-induced oxidative damage in human SH-SY5Y cells assessed as increase in cell survival at 1 to 10 uM pretreated for 4 hrs followed by 100 uM 6-OHDA stimulation and measured after 24 hrs by MTT assay. In kind it is functional, cell-based. The note with it: dose 1-10 µM, time 28.0 hrs. In general terms: Formazan colour is commonly taken as a measure of viable cells.

Assay [7] has as its system PC-12. Put plainly: Neuroprotective activity against H2O2-induced oxidative damage in rat PC-12 cells assessed as increase in cell survival pretreated for 4 hrs followed by 800 uM H2O2 stimulation and measured after 24 hrs by MTT assay. In kind it is functional, cell-based. The note with it: dose 1-10 µM, time 28.0 hrs.
In assay [8] the test system is SH-SY5Y. Put plainly: Neuroprotective activity against H2O2-induced oxidative damage in human SH-SY5Y cells assessed as increase in cell survival pretreated for 4 hrs followed by 200 uM H2O2 stimulation and measured after 24 hrs by MTT assay. In kind it is functional, cell-based. The note with it: dose 1-10 µM, time 28.0 hrs.
In assay [9] the test system is PC-12. Nature of the assay: Neuroprotective activity against H2O2-induced oxidative damage in rat PC-12 cells assessed as increase in Nrf2 protein expression at 10 uM pretreated for 4 hrs followed by H2O2 stimulation and measured after 24 hrs by Western blot analysis. The note with it: time 28.0 hrs. In kind it is functional, cell-based.

SMILES strings stand for the structures. Active and inactive are the calls of the source. No cut-off for these calls is given here.

As usually defined, the IC50 is the concentration needed to halve the response being measured.

On to `O=C(NO)c1ccc(CN2CCc3c(n(CC4CC4)c4ccc(F)cc34)C2)cc1`, for which the Activity is 3.17% in the assay on PC-12 [1]; 1.12% with PC-12 [2]; 50.2% in the assay on PC-12 [3]; “Dose-Dependent Effect” in the assay on PC-12 [4]; “Dose-Dependent Effect” in the assay with PC-12 [7]; “Dose-Dependent Effect” with SH-SY5Y [8]. Moreover, the results for the IC50 against Histone deacetylase 8 and at Histone deacetylase 2 were 1.95 µM and 19.3 µM, respectively. The outcome in the assay with PC-12 [5], in the assay on SH-SY5Y [6] and with PC-12 [9] was Active.
